{"source": "patent US6573296B2", "about": "“Therapeutic quassinoid preparations with antineoplastic, antiviral, and herbistatic activity” (priority 1997, dated 2003)", "key": {"L1210": {"system": "L1210", "assay": "soft agar disk diffusion zone of inhibition assay", "type": "cell-based, mice", "settings": "25 ug/disk"}, "C38": {"system": "C38", "assay": "soft agar disk diffusion zone of inhibition assay", "type": "cell-based, mice", "settings": "25 ug/disk"}, "[1]": {"system": "leukemia and solid tumor cells", "assay": "in vitro differential cytotoxicity, solid tumor versus leukemia", "type": "cell-based", "settings": "solid tumor versus leukemia zones"}, "[2]": {"assay": "in vivo chemotherapy of SC transplanted tumor", "design": "species or system mice", "settings": "mouse, in vivo; C38; IV; days: Glaucarubinone 3,5-10, Holacanthone 3-12, Glaucarubolone 3-6, Chaparrinone 3-9; read-out: MTD Total Dose", "from_the_text": "(§1) Mice. Inbreds mice used were C57B1/6, C3H/He, Balb/c, and DBA/2; hybrids were: B6D2F1 (C57B1/6 females×DBA/2 males), and CD2F1 (Balb/c females×DBA/2 males). All mice were obtained from the Frederick Cancer Research Facility, Frederick, Md.\n(§2) Tumors were maintained in the mouse strain of origin and were transplanted into either an appropriate F1 hybrid or the strain of origin for therapy trials. All mice were over 17 g at the start of therapy; the range of individual body weights in each experiment was within 2 g. The mice were supplied food and water ad libitum.\n(§3) Antitumor Agents. The compound easily dissolved in the diluent which consisted of 3% [V/V (100%-Pure)] Ethanol, 1% (V/V) polyoxyethylanesorbitan monopalmitate (P.O.E.40) and 96% sterile distilled water. The primary route of administration was intravenous (IV).\n(§4) […] Chemotherapy. The methods of protocol design, tumor transplantation, drug treatment, endpoint determination, definition of terms, toxicity evaluation, data analysis, quantification of tumor cell kill, and the biologic significance of the drug treatment results with transplantable tumors have been presented. The following is a brief summary of those methods as they apply to the work described.\n(§5) The animals necessary to begin an experiment were pooled, implanted bilaterally SC on day 0 with 30 to 60 mg tumor fragments using a 12 gauge trocar, and again pooled before randomization to the various treatment and control group. Chemotherapy was either started within 3 days after tumor implantation while the number of cells per mouse was relatively small (10^7 to 10^8 cells), or allowed to grow to palpation (about 3×10^8 cells) in a more advanced stage trial.\n(§6) Tumors were measured with a caliper either once or twice weekly (as needed) until either tumors exceeded 1500 mg or cure was. assured. Tumor weights were estimated from two-dimensional measurements:\n(§7) Tumor Weight (mg)=(a×b^2)/2, where a and b are the tumor length and width (mm) respectively.\n(§8) Tumor growth delay. (T-C value), where T is the median time (in days) required for the treatment group tumors to reach a predetermined size, and C is the median time (in days) for the control group tumors to reach the same size. Tumor-free survivors were excluded from these calculations (cures were tabulated separately).\n(§9) Calculation of tumor cell kill. For SC growing tumors, the log10 cell kill was calculated from the following formula: [formula]\n(§10) Where T-C is the tumor growth delay (in days) as described above and Td is the tumor volume doubling time (in days), the latter estimated from the best fit straight line from a log-linear growth plot of the control-group tumors in exponential growth (500 to 1500 mg range). The conversion of the T-C values of log10 cell kill is possible because the Td for tumors regrowing post-treatment approximated the Td values of the tumors in untreated control mice.\n(§11) Determination of activity by tumor growth inhibition (T/C value). Measurements were carried out simultaneously in both the treatment and control groups. When the control group tumors reached approximately 750-1500 mg in size (median of group), the median tumor weight of each group was determined (including zeros)."}, "[3]": {"system": "colon adenocarcinoma #38 [C38]", "assay": "in vivo chemotherapy of SC transplanted tumor", "design": "species or system mice", "from_the_text": "as §1, §2, §3, §4, §5, §6, §7, §8, §9, §10, §11"}, "[4]": {"system": "Arabadopsis (var. Columbia)", "assay": "growth of plants in soil after foliar application", "type": "in vivo", "description": "To evaluate the growth phenotype of a set of plants, a 1 mg concentration of 100 Mm (solution QD-2). This solution was diluted serially with water with or without Triton X-100, ethanol or DMSO and used directly for measurement of effects on seed germination or applied using a microliter syringe to foliage to evaluate growth effects on plants.\nWhen applied to Arabadopsis (var. Columbia) growing in soil in 4 inch plastic pots, the glaucarubolone preparation was herbicidal at dilutions of 1:100 and 1:1000 (10 μ1/half pot). Plants were treated after 10 days of germination. At a dilution of 1:10,000, the plants were not killed but growth was completely stopped for about 3 weeks. Growth resumed about 30 days after treatment. […] The calculated application rate was 2.5×10^−3 oz/A.\nIn an experiment with Arabadopsis where the quassinoid preparation was administered in ethanol, herbicidal activity was observed down to a dilution of 1:10^4 (2.5×10^−5 oz/A) and a dilution of 1:10^5 (2.5×10^−6 oz/A) appeared to stop growth for at least 30 days. All plants were watered from the bottom to reduce surface spreading of the material. The inhibited phenotype includes an impaired ability of the plants to grow, i.e., cell elongation/cell expansion is prevented or reduced by at least 50% over several weeks."}, "Tomato plants": {"system": "Tomato plants", "assay": "growth of plants in peat after treatment", "type": "in vivo", "description": "Tomato plants about 3.5 cm high at the time of treatment were grown in peat in a flat of 1.5 inch diameter compartments and were treated with either aqueous simalikalactone (solution QD-1) or aqueous glaucarubolone (solution QD-2) containing 0.1% Triton X-100. The final volume/plant was 10 μ1 for the aqueous solution and 200 µl of the aqueous solution containing Triton X-100. […] With the aqueous treatment, plants also were inhibited but not as markedly as with detergent."}, "HeLa cells": {"system": "HeLa cells", "assay": "growth of HeLa cells under different redox poise", "type": "cell-based", "settings": "10^−7 M, no drug 725", "description": "The reduced environment was obtained by addition of 100 μM cysteine and the oxidized environment by addition of 10 μM ter-butylhydroperoxide."}, "[5]": {"system": "Crandall Feline Kidney cells (CFK cells), uninfected", "assay": "time for complete cell killing, uninfected cells"}, "NADH oxidase [6]": {"system": "NADH oxidase", "assay": "NADH oxidase activity of rat liver cell fractions", "settings": "for EC50: read-out: ED50, inhibition of NADH oxidase activity"}, "NADH oxidase [7]": {"system": "NADH oxidase", "assay": "NADH oxidase activity of CFK microsomes from uninfected cells", "settings": "read-out: ED50, inhibition of NADH oxidase activity; Plasma membrane-free CFK microsomes (Golgi-enriched) from uninfected cells"}}, "data": [{"smiles": "CC1=CC(=O)C(O)C2(C)C1CC1OC(=O)C(O)C3C(C)C(O)C4(O)OCC13C42", "note": "(centres unmarked) [Glaucarubolone, glaucarubolone]", "values": [{"measurement": "zone of inhibition L1210", "setting": "L1210", "value": "25:100 ZONE UNITS"}, {"measurement": "zone of inhibition C38", "setting": "C38", "value": 900, "unit": "ZONE UNITS"}, {"measurement": "solid tumor selectivity in vitro", "setting": "[1]", "value": "demonstrated solid tumor selectivity"}, {"measurement": "MTD", "setting": "[2]", "value": 151, "unit": "mg/kg"}, {"measurement": "Cures", "setting": "[3]; C38, IV at MTD, cured/total mice", "value": "1/5"}, {"measurement": "in vivo activity against C38, in words", "setting": "[3]; mouse, in vivo", "value": "therapeutic activity"}, {"measurement": "plants which survived and did not grow for >50 days", "setting": "[4]; dilution of 1:1000 (2.5×10^−3 oz/A)", "value": "Approximately 10%"}, {"measurement": "time after treatment at which growth resumed", "setting": "[4]; dilution of 1:10,000", "value": "about 30 days"}, {"measurement": "time for which growth was completely stopped", "setting": "[4]; dilution of 1:10,000 (2.5×10^−4 oz/A), plants not killed", "value": "about 3 weeks"}, {"measurement": "effect on plants, in words", "setting": "[4]; dilutions of 1:100 and 1:1000 (10 μl/half pot), treated after 10 days of germination", "value": "herbicidal"}, {"measurement": "effect on tomato plants, in words", "setting": "Tomato plants; 1:1000 and 1:10,000 dilutions in detergent solution, 30 days after treatment", "value": "still inhibited"}, {"measurement": "effect on tomato plants, in words", "setting": "Tomato plants; 100 Mm diluted 1:100 in 0.1% Triton X-100", "value": "did not grow and eventually died"}, {"measurement": "Growth HeLa cells after 72 h, Oxidized", "setting": "HeLa cells; 10 μM ter-butylhydroperoxide", "value": 500, "unit": "cells/mm^2"}, {"measurement": "Growth HeLa cells after 72 h, Reduced", "setting": "HeLa cells; 100 μM cysteine", "value": 700, "unit": "cells/mm^2"}, {"measurement": "Growth HeLa cells after 72 h, In situ", "setting": "HeLa cells", "value": 720, "unit": "cells/mm^2"}, {"measurement": "Time for complete cell killing (>98%), Uninfected", "setting": "[5]; 3 × 10^−4 M", "value": 120, "unit": "h"}, {"measurement": "Time for complete cell killing (>98%), Uninfected", "setting": "[5]; 3 × 10^−5 M", "value": 120, "unit": "h"}, {"measurement": "Time for complete cell killing (>98%), Uninfected", "setting": "[5]; 3 × 10^−6 M", "value": 144, "unit": "h"}, {"measurement": "Time for complete cell killing (>98%), Uninfected", "setting": "[5]; 3 × 10^−7 M", "value": 192, "unit": "h"}, {"measurement": "Time for complete cell killing (>98%), Uninfected", "setting": "[5]; 3 × 10^−8 M", "value": ">192", "unit": "h"}, {"measurement": "Time for complete cell killing (>98%), Uninfected", "setting": "[5]; 3 × 10^−9 M", "value": ">192", "unit": "h"}, {"measurement": "inhibition of NADH oxidation, in words", "setting": "NADH oxidase [6]; isolated plasma membranes of liver cells, FIG. 10", "value": "inhibits NADH oxidation"}, {"measurement": "EC50", "setting": "NADH oxidase [6]; Rat liver golgi apparatus", "value": "> 10", "unit": "µM"}, {"measurement": "EC50", "setting": "NADH oxidase [6]; Rat liver microsomes", "value": "> 10", "unit": "µM"}, {"measurement": "EC50", "setting": "NADH oxidase [6]; Rat liver plasma membrane", "value": "> 10", "unit": "µM"}, {"measurement": "EC50", "setting": "NADH oxidase [7]", "value": "> 10", "unit": "µM"}]}]}
